Literature values in US8350024B2, “Sugar derivatives and application of same” (priority 2006, dated 2013).

System: herpes simplex virus type 2
Details: conventional drug, comparison value

Question: For Nc1nc2c(ncn2COCCO)c(=O)[nH]1 [acyclovir], which selection index is on record?
Answer: about 800
